Experiment: Example 3: phase 3 trial, enavogliflozin 0.3 mg vs dapagliflozin 10 mg once a day for 24 weeks added to metformin and gemigliptin in patients with type 2 diabetes (same endpoints, rescue drug)
Assay type: in vivo, human
Settings: for Subjects achieving therapeutic glycemic response 1, %: response 1 = HbA1c change >0.5% or HbA1c <7%; for Subjects achieving therapeutic glycemic response 2, %: response 2 = HbA1c change >0.7% or HbA1c <7%; for Subjects achieving therapeutic glycemic response 3, %: response 3 = HbA1c change >1% or HbA1c <7%
Description: 1) when Metformin (≥1,000 mg/Day) was Administered at a Constant Dose for at Least 8 Weeks Prior to Pre-Visit (Pre-Screening) • Metformin (≥1,000 mg/day) and gemigliptin (50 mg/day) were co-administered during the 8-week stabilization period. […] 4) when Metformin (≥1,000 mg/Day) and Gemigliptin (50 mg/Day) were Co-Administered at Constant Doses for at Least 8 Weeks Prior to Pre-Visit (Prescreening) • Without a separate stabilization period, Pre-visit (pre-screening) was Visit 1 (screening).
Subjects who met the inclusion/exclusion criteria continued to receive metformin and gemigliptin while receiving a placebo of the clinical trial drug in a single-blind (subject-blinded) state for a 2-week run-in period.
Here, the randomized subjects were stratified according to the administration therapy (co-administration with two or less agents (one or two agents) or three or more agents) of a conventional hypoglycemic agent (before washout of another hypoglycemic agent) within 24 weeks prior to obtaining written informed consent and by an HbA1c value (<8% or ≥8%) at Visit 1 (screening) measured in the central laboratory.
The randomized subjects were administered two tablets of the clinical trial drug corresponding to each administration group once a day, and then visited the institution at weeks 6, 12, 18, and 24 during the 24-week administration period to conduct efficacy and safety assessments. In addition, during the clinical trial period, they were instructed to exercise regularly and control their diet without changing their daily life patterns.
• 1) Change in HbA1c at week 24 after administration of clinical trial drug compared to Visit 2 (randomization)
• 1) Change in HbA1c at each time point of weeks 6, 12, and 18 after administration of clinical trial drug compared to Visit 2 (randomization) • 2) Change in FPG at each time point of weeks 6, 12, 18, and 24 after administration of clinical trial drug compared to Visit 2 (randomization) • 3) Proportion of subjects achieving HbA1c<7% at each time point of weeks 6, 12, 18, and 24 after administration of clinical trial drug • 4) Proportion of subjects achieving HbA1c<6.5% at each time point of weeks 6, 12, 18, and 24 after administration of clinical trial drug • 5) Proportion of subjects achieving therapeutic response (HbA1c change (HbA1c at Visit 2—HbA1c at each evaluation time point)>0.5% or HbA1c<7% at each evaluation time point compared to Visit 2 (randomization)) at each time point of weeks 6, 12, 18, and 24 after administration of clinical trial drug • 6) Proportion of subjects achieving therapeutic response (HbA1c change (HbA1c at Visit 2—HbA1c at each evaluation time point)>0.7% or HbA1c<7% at each evaluation time point compared to Visit 2 (randomization)) at each time point of weeks 6, 12, 18, and 24 after administration of clinical trial drug • 7) Proportion of subjects achieving therapeutic response (HbA1c change (HbA1c at Visit 2—HbA1c at each evaluation time point)>1% or HbA1c<7% at each evaluation time point compared to Visit 2 (randomization)) at each time point of weeks 6, 12, 18, and 24 after administration of clinical trial drug

[1] = week 18, per-protocol set, enavogliflozin 0.3 mg, dapagliflozin 10 mg
[2] = week 24, modified per-protocol set 1, enavogliflozin 0.3 mg, dapagliflozin 10 mg
[3] = week 24, modified per-protocol set 2
[4] = week 24, modified per-protocol set 2, enavogliflozin 0.3 mg, dapagliflozin 10 mg
[5] = week 24, per-protocol set, enavogliflozin 0.3 mg, dapagliflozin 10 mg

CCOc1ccc(Cc2cc([C@@H]3O[C@H](CO)[C@@H](O)[C@H](O)[C@H]3O)ccc2Cl)cc1 [Dapagliflozin, reference compound]
body weight, Median [1]: 62.30 kg
Subjects achieving therapeutic glycemic response 1, % [1]: 82.93%
Subjects achieving therapeutic glycemic response 2, % [1]: 76.42%
Subjects achieving therapeutic glycemic response 3, % [1]: 70.73%
FPG change from baseline, LS mean (SE) (week 24): −23.72(1.78) mg/dL
HDL-C change from baseline, LS mean (SE) (week 24): 4.40(0.69) mg/dL
HOMA-IR change from baseline, LS mean (SE) (week 24): −0.93(0.11)
HOMA-β change from baseline, LS mean (SE) (week 24): 5.78(4.72)
HbA1c change from baseline, LS mean (SE) (week 24): −0.86(0.05) % p
HbA1c change from baseline, Mean (SD) (week 24): −0.89(0.65) % p
LDL-C change from baseline, LS mean (SE) (week 24): 3.12(1.85) mg/dL
UACR change from baseline, LS mean (SE) (week 24): −16.13 (3.84) g/kg
UGCR change from baseline, LS mean (SE) (week 24): 43.51(2.26) mg/mg
adiponectin change from baseline, LS mean (SE) (week 24): 0.92(0.35) μg/mL
body weight change from baseline, LS mean (SE) (week 24): −3.01(0.22) kg
diastolic blood pressure change from baseline, LS mean (SE) (week 24): −1.89(0.70) mmHg
fasting C-peptide change from baseline, LS mean (SE) (week 24): −0.08(0.02) ng/ml
leptin change from baseline, LS mean (SE) (week 24): −0.57(0.51) ng/mL
systolic blood pressure change from baseline, LS mean (SE) (week 24): −4.27(0.93) mmHg
total cholesterol change from baseline, LS mean (SE) (week 24): 5.57(2.03) mg/dL
triglyceride change from baseline, LS mean (SE) (week 24): −8.78(3.94) mg/dL
Proportion of subjects who received a rescue drug (week 24, FAS): 0.74%
Change from baseline in HDL-C, ANCOVA LS mean [2]: 4.40 mg/dL
Change from baseline in HDL-C, Mean [2]: 4.44 mg/dL
Change from baseline in HDL-C, Median [2]: 4.00 mg/dL
Change from baseline in LDL-C, ANCOVA LS mean [2]: 3.12 mg/dL
Change from baseline in LDL-C, Mean [2]: 2.72 mg/dL
Change from baseline in LDL-C, Median [2]: 1.50 mg/dL
Change from baseline in total cholesterol, ANCOVA LS mean [2]: 5.57 mg/dL
Change from baseline in total cholesterol, Mean [2]: 4.69 mg/dL
Change from baseline in total cholesterol, Median [2]: 3.00 mg/dL
Change from baseline in triglycerides, ANCOVA LS mean [2]: -8.78 mg/dL
Change from baseline in triglycerides, Mean [2]: -13.81 mg/dL
Change from baseline in triglycerides, Median [2]: -6.00 mg/dL
Fasting HDL-C, Mean [2]: 51.87 mg/dL
Fasting HDL-C, Median [2]: 50.50 mg/dL
Fasting LDL-C, Mean [2]: 80.13 mg/dL
Fasting LDL-C, Median [2]: 71.50 mg/dL
Fasting total cholesterol, Mean [2]: 148.49 mg/dL
Fasting triglycerides, Mean [2]: 118.68 mg/dL
Fasting triglycerides, Median [2]: 104.00 mg/dL
fasting Total cholesterol, Median [2]: 145.00 mg/dL
Change from baseline in diastolic blood pressure, ANCOVA LS mean [3]: −1.89 mmHg
Change from baseline in diastolic blood pressure, Mean [3]: −1.60 mmHg
Change from baseline in diastolic blood pressure, Median [3]: −2.00 mmHg
Diastolic blood pressure, Mean [3]: 72.27 mmHg
Diastolic blood pressure, Median [3]: 73.00 mmHg
Change from baseline in systolic blood pressure, ANCOVA LS mean [4]: −4.27 mmHg
Change from baseline in systolic blood pressure, Mean [4]: −3.74 mmHg
Change from baseline in systolic blood pressure, Median [4]: −4.00 mmHg
Systolic blood pressure, Mean [4]: 120.20 mmHg
Systolic blood pressure, Median [4]: 119.00 mmHg
Adiponectin, Mean (week 24, per-protocol set): 7.18 µg/mL
Adiponectin, Median (week 24, per-protocol set): 6.39 µg/mL
Change from baseline in HOMA-IR, ANCOVA LS mean (week 24, per-protocol set): −0.93
Change from baseline in HOMA-IR, Mean (week 24, per-protocol set): −0.88
Change from baseline in HOMA-IR, Median (week 24, per-protocol set): −0.70
Change from baseline in HOMA-β, ANCOVA LS mean (week 24, per-protocol set): 5.78
Change from baseline in HOMA-β, Mean (week 24, per-protocol set): 7.95
Change from baseline in HOMA-β, Median (week 24, per-protocol set): 7.20
Change from baseline in UACR, ANCOVA LS mean (week 24, per-protocol set): -16.13 g/kg
Change from baseline in UACR, Mean (week 24, per-protocol set): -11.12 g/kg
Change from baseline in UACR, Median (week 24, per-protocol set): -0.70 g/kg
Change from baseline in UGCR, ANCOVA LS mean (week 24, per-protocol set): 43.51 mg/mg
Change from baseline in UGCR, Mean (week 24, per-protocol set): 42.31 mg/mg
Change from baseline in UGCR, Median (week 24, per-protocol set): 42.35 mg/mg
Change from baseline in adiponectin, ANCOVA LS mean (week 24, per-protocol set): 0.92 µg/mL
Change from baseline in adiponectin, Mean (week 24, per-protocol set): 0.84 µg/mL
Change from baseline in adiponectin, Median (week 24, per-protocol set): 0.78 µg/mL
Change from baseline in leptin, ANCOVA LS mean (week 24, per-protocol set): -0.57 ng/mL
Change from baseline in leptin, Mean (week 24, per-protocol set): -0.74 ng/mL
Change from baseline in leptin, Median (week 24, per-protocol set): -0.46 ng/mL
HOMA-IR (insulin resistance), Mean (week 24, per-protocol set): 1.97
HOMA-IR (insulin resistance), Median (week 24, per-protocol set): 1.55
HOMA-β (beta-cell function), Mean (week 24, per-protocol set): 48.41
HOMA-β (beta-cell function), Median (week 24, per-protocol set): 36.70
Leptin, Mean (week 24, per-protocol set): 10.10 ng/mL
Leptin, Median (week 24, per-protocol set): 8.14 ng/mL
UACR, Mean (week 24, per-protocol set): 23.58 g/kg
UACR, Median (week 24, per-protocol set): 10.20 g/kg
UGCR, Mean (week 24, per-protocol set): 43.84 mg/mg
UGCR, Median (week 24, per-protocol set): 42.85 mg/mg
Body weight, Mean [5]: 64.38 kg
Change from baseline in FPG, ANCOVA LS mean [5]: -23.72 mg/dL
Change from baseline in FPG, Mean [5]: -23.70 mg/dL
Change from baseline in FPG, Median [5]: -20.00 mg/dL
Change from baseline in body weight, ANCOVA LS mean [5]: -3.01 kg
Change from baseline in body weight, Mean [5]: -2.83 kg
Change from baseline in body weight, Median [5]: -2.60 kg
Change from baseline in fasting C-peptide, ANCOVA LS mean [5]: -0.08 ng/mL
Change from baseline in fasting C-peptide, Mean [5]: -0.07 ng/mL
Change from baseline in fasting C-peptide, Median [5]: -0.10 ng/mL
FPG, Mean [5]: 116.82 mg/dL
FPG, Median [5]: 114.00 mg/dL
Fasting C-peptide, Mean [5]: 0.62 ng/mL
Fasting C-peptide, Median [5]: 0.56 ng/mL
Subjects achieving HbA1c target of <6.5%, (%) [5]: 17.07%
Subjects achieving HbA1c target of <7%, % [5]: 62.60%
body weight, Median [5]: 62.90 kg
Subjects achieving therapeutic glycemic response 1, % [5]: 85.37%
Subjects achieving therapeutic glycemic response 2, % [5]: 82.11%
Subjects achieving therapeutic glycemic response 3, % [5]: 74.80%

Source: patent publication US20260130933A1, “PHARMACEUTICAL COMPOSITION FOR PREVENTION OR TREATMENT OF NEPHROPATHY AND/OR DIABETES MELLITUS, COMPRISING ENAVOGLIFLOZIN” (DAEWOONG PHARMACEUTICAL CO., LTD., priority 2022, published 2026)
